Test [1] has as its system mice. The following applies: mice fasted for 17 hours; cited from earlier work.
In test [2] the test system is dogs. Briefly: sham-feeding in dogs with esophageal, gastric and pancreatic fistulae: gastric and pancreatic secretion.
Test [3] relates to mice. The following applies: cited from earlier work.
For test [4] the following is noted: in vivo; cited from earlier work.

Regarding `O=C[C@H](O)[C@@H](O)[C@H](O)[C@H](O)CO` [glucose], in test [1], the “effect on food intake” value is “ineffective”.

In test [2] (320 mcg/kg/hour of histamine), `NCCc1c[nH]cn1` [histamine] displayed a maximal acid output of 13.55±1.8 mEq/15 mins.

On to “H-(pyro)-Glu-His-GlyOH [appetite-retarding peptide]”, for which the “body weight, minimum” value in test [3] (12 nmole daily for 20 days, dropped from a mean of 35 g) is listed as 24 g. Moreover, in test [3] (12 nmole injected daily for 20 days, reduced from 5.7), the food consumption is reported as 3.0 g per day. For the same compound, the “duration of reduced food consumption” value in test [3] (12 nmole injected daily for 20 days) is reported as “about 6 months”. For the same compound, in test [4], the “acute effect on blood glucose” value is on record as “no acute effect” and the “acute effect on serum insulin levels” value is listed as “no acute effect”.

Take “bovine serum albumin: bovine serum albumin”: in test [1], the “effect on food intake” value is given as “ineffective”.

caerulein: the “maximal pancreatic protein secretion” value in test [2] (0.5 mcg/kg/hour of caerulein) amounted to 650±86 mg/15 mins.

With glucagon, in test [1], the “effect on food intake” value was “ineffective”.

On to secretin, for which the “effect on food intake” value in test [1] was “ineffective”.

Values taken from patent US4328134A, “Anorexigenic peptides” (priority 1980, dated 1982).
